From patent publication US20180086749A1, “INHIBITORS OF VIRUSES” (priority 2015, published 2018)
Where “and” joins values, the source holds several entries; their conditions need not be identical. Equal values may be shown once. Read-outs that look alike come from different tables or passages of the source.

Columns and labels:
CHIKV (S27 strain) = CHIKV (S27 strain) CPE assay; format: cell-based, Chikungunya virus
in vitro = conditions: African green monkey
VEEV (TC83 strain) = test: microbe, parasite or virus in culture; format: cell-based, Venezuelan equine encephalitis virus
LCMV-ARM = format: cell-based, Lymphocytic Choriomeningitis Virus
[1] = test system: VEEV TrD (Trinidad donkey); format: cell-based, Venezuelan equine encephalitis virus
Influenza virus A (H1N1) = format: cell-based
CHIKV S27 = format: cell-based, Chikungunya virus; conditions: 5 μM
YFV 17D = format: cell-based, Yellow Fever virus
[2] = test system: host gene expression in HEp-2 cells; test: DNA microarray host gene expression; format: cell-based, Human; conditions: 5 μM, 18 hours
VEEV V3526-luc = test: microbe, parasite or virus in culture; format: cell-based, Venezuelan equine encephalitis virus; conditions: Venezuelan equine encephalitis virus
pVSV-luc = test: microbe, parasite or virus in culture; format: cell-based, Vesicular stomatitis virus
[3] = Chikungunya virus, read-out: CHIKV EC50
[4] = Venezuelan equine encephalitis virus, read-out: VEEV EC50
[5] = Tables 7-10, read-out: CHIKV (S27 strain) CPE Assay Potency mean EC50
[6] = read-out: VEEV (TC83 strain) CPE Assay Potency mean EC50

Structure (SMILES)	CC50 (Vero 76 cells) [µM]	EC50 (CHIKV (S27 strain); [5]) [µM]	EC50 (VEEV (TC83 strain); [6]) [µM]	further results
CCOc1ccccc1C1CCN(c2nc3c(s2)CCCC3)C1=O (stereo not drawn)	–	–	–	EC50 (CHIKV (S27 strain); [3]): > 50 µM; CC50 (in vitro; CC50): > 50 µM; EC50 (VEEV (TC83 strain); [4]): 4.5 µM
CCOc1ccccc1NC(=O)N(c1ccccc1)c1nc2c(s1)CCCC2	–	–	–	EC50 (CHIKV (S27 strain); [3]): 12.2 µM; CC50 (in vitro; CC50): > 50 µM; EC50 (VEEV (TC83 strain); [4]): 10 µM
O=C(Cc1cccs1)Nc1nc2c(s1)CCCC2 [A]	–	–	–	Log titer reduction at 5 μM (LCMV-ARM): 0.085 log; Log titer reduction at 5 μM [1]: 1.765 log; Log titer reduction at 5 μM (Influenza virus A (H1N1)): 4.949 log; Log titer reduction at 5 μM (CHIKV S27): 0.61 log and 0.612 log
CN(C(=O)Cc1sccc1F)c1nc2c(s1)CCCC2 [B]	–	–	–	Log titer reduction at 5 μM (LCMV-ARM): 3.466 log; Log titer reduction at 5 μM [1]: 4.768 log; Log titer reduction at 5 μM (Influenza virus A (H1N1)): 4.949 log; Log titer reduction at 5 μM (YFV 17D): 2.32 log; Log titer reduction at 5 μM (CHIKV S27): 4.024 log
O=C(Cc1cccs1)N(c1ccccc1)c1nc2c(s1)CCCC2 [CB10002623]	–	–	–	GBP2 expression upregulation [2]: 3.5; IFI44 expression upregulation [2]: 2.83; IFIT1 expression upregulation [2]: 2.3; IRF9 expression upregulation [2]: 2.4; ISG20 expression upregulation [2]: 2.85; OASL expression fold increase [2]: 3.76 fold; expression of IFN-ε [2]: decreased in half; RIG-I expression fold increase ([2]; vs DMSO): 4.63 fold
Cc1csc(CC(=O)N(C)c2nc3c(s2)CCCC3)c1 [C]	–	–	–	Log titer reduction at 5 μM (LCMV-ARM): 3.014 log; Log titer reduction at 5 μM [1]: 3.741 log; Log titer reduction at 5 μM (Influenza virus A (H1N1)): 3.075 log; Log titer reduction at 5 μM (YFV 17D): 2.588 log; Log titer reduction at 5 μM (CHIKV S27): 3.62 log
COc1ccccc1CC(=O)N(C)c1nc2c(s1)CCCC2 [D]	–	–	–	Log titer reduction at 5 μM [1]: 2.716 log; Log titer reduction at 5 μM (CHIKV S27): 2.182 log
CCOc1ccccc1CC(=O)N(C)c1nc2c(s1)CCCC2 [E]	–	–	–	Log titer reduction at 5 μM [1]: 3.411 log; Log titer reduction at 5 μM (CHIKV S27): 3.161 log
O=C(Cc1cccs1)Nc1nc2c(s1)CCCC2 [Entry 1]	> 50	4.9	5.1	–
CCOc1ccc(CC(=O)N(C)c2nc3c(s2)CCCC3)cc1 [Entry 8]	> 50	> 50	> 50	–
COCc1ccccc1CC(=O)N(C)c1nc2c(s1)CCCC2 [Entry 9]	> 50	9.3	9.1	–
Cc1ccccc1CC(=O)N(C)c1nc2c(s1)CCCC2 [Entry 10]	> 50	3.6	1	–
Cc1cccc(CC(=O)N(C)c2nc3c(s2)CCCC3)c1 [Entry 11]	> 50	2.8	1.3	–
Cc1ccc(CC(=O)N(C)c2nc3c(s2)CCCC3)cc1 [Entry 12]	> 50	4.1	0.9	–
Cc1ccc(C)c(CC(=O)N(C)c2nc3c(s2)CCCC3)c1 [Entry 13]	> 50	8.9	11.7	–
CCOc1ccccc1CC(=O)N(c1nc2c(s1)CCCC2)C(C)C [Entry 14]	> 50	> 50	15.9	–
CCOc1ccccc1CC(=O)N(c1nc2c(s1)CCCC2)C1CCOCC1 [Entry 15]	> 50	> 50	12.5	–
CCOc1ccccc1CC(=O)N(CCOC)c1nc2c(s1)CCCC2 [Entry 16]	> 50	10.9	10.9	–
COc1ccccc1CC(=O)N(c1ccccc1)c1nc2c(s1)CCCC2 [Entry 17]	> 50	0.5	0.7	–
O=C(Cc1ccccc1C(F)(F)F)N(c1ccccc1)c1nc2c(s1)CCCC2 [Entry 19]	> 50	1.2	1.2	–

Structure (SMILES)	CC50 (Vero 76 cells) [µM]	EC50 (CHIKV (S27 strain); [5]) [µM]	EC50 (VEEV (TC83 strain); [6]) [µM]	further results
CCOc1ccccc1CC(=O)N(c1nc2c(s1)CCCC2)c1ccccc1OC [Entry 20]	> 50	> 50	> 50	–
CCOc1ccccc1CC(=O)N(c1cccc(OC)c1)c1nc2c(s1)CCCC2 [Entry 21]	> 50	4.1	1.7	–
CCOc1ccccc1CC(=O)N(c1ccc(OC)cc1)c1nc2c(s1)CCCC2 [Entry 22]	> 50	> 50	4.6	–
CCOc1ccccc1CC(=O)N(c1nccs1)c1nc2c(s1)CCCC2 [Entry 23]	> 50	> 50	> 50	–
CCOc1ccccc1CC(=O)N(c1cccnc1)c1nc2c(s1)CCCC2 [Entry 24]	–	10.6	2.5	–
O=C(Cc1ccccn1)N(c1ccccc1)c1nc2c(s1)CCCC2 [Entry 25]	33.2	> 50	> 50	–
O=C(Cc1ccco1)N(c1ccccc1)c1nc2c(s1)CCCC2 [Entry 26]	25.8	8.2	6.8	–
O=C(Cc1ccc(Br)s1)N(c1ccccc1)c1nc2c(s1)CCCC2 [Entry 27]	17.2	0.05	0.02	–
O=C(Cc1sccc1Br)N(c1ccccc1)c1nc2c(s1)CCCC2 [Entry 28]	22.4	0.05	0.02	–
Cc1ccc(CC(=O)N(c2ccccc2)c2nc3c(s2)CCCC3)s1 [Entry 29]	7.8	0.11	0.03	–
Cc1csc(CC(=O)N(C)c2nc3c(s2)CCCC3)c1 [Entry 30]	36.4	0.09	0.02	–
COc1csc(CC(=O)N(C)c2nc3c(s2)CCCC3)c1 [Entry 31]	36.1	0.14	0.05	–
CN(C(=O)Cc1cc(F)cs1)c1nc2c(s1)CCCC2 [Entry 32]	22.5	10.2	5.1	–
CN(C(=O)Cc1sccc1F)c1nc2c(s1)CCCC2 [Entry 33]	–	–	–	EC50 (CHIKV (S27 strain); Chikungunya virus, Tables 7-10, read-out: CHIKV (S27 strain) CPE Assay Potency mean EC50): 0.3 µM; CC50 (in vitro; VERO Cell Cytotoxicity Assay mean CC50): 41.4 µM; EC50 (VEEV (TC83 strain); Venezuelan equine encephalitis virus, read-out: VEEV (TC83 strain) CPE Assay Potency mean EC50): 0.4 µM
CN(C(=O)Cc1sccc1C(F)(F)F)c1nc2c(s1)CCCC2 [Entry 34]	6.4	> 50	–	–
CN(C(=O)Cc1ccc(C(F)(F)F)s1)c1nc2c(s1)CCCC2 [Entry 35]	> 50	> 50	> 50	–
COc1ccccc1CC(=O)N(c1ccccc1)c1nc2c(s1)CCCC2 [F]	–	–	–	Log titer reduction at 5 μM [1]: 3.198 log; Log titer reduction at 5 μM (CHIKV S27): 2.495 log
O=C(Cc1sccc1Br)N(c1ccccc1)c1nc2c(s1)CCCC2 [G]	–	–	–	Log titer reduction at 5 μM [1]: 4.754 log; Log titer reduction at 5 μM (CHIKV S27): 5.179 log
CC[C@@]1([C@@H]2O[C@@H]([C@H]3O[C@@](O)(CO)[C@H](C)C[C@@H]3C)C[C@@H]2C)CC[C@H]([C@]2(C)CC[C@]3(C[C@H](O)[C@@H](C)[C@@H]([C@@H](C)[C@@H](OC)[C@H](C)C(=O)O)O3)O2)O1 [Monensin, monensin, reference compound]	–	–	–	EC50 (VEEV V3526-luc; N2a, read-out: EC50 V3526-luc): 0.25 µM; EC50 (VEEV V3526-luc; NIH3T3, read-out: EC50 V3526-luc): 0.02 µM; EC50 (VEEV V3526-luc; Vero 76, read-out: EC50 V3526-luc): 3.87 µM; EC50 (VEEV V3526-luc; read-out: EC50 V3526-luc): 0.02 µM; EC50 (VEEV V3526-luc; read-out: EC50 values range): 0.02 to 0.25 µM; EC50 (pVSV-luc; Vesicular stomatitis virus, N2a, read-out: EC50 pVSV-Gp): 0.22 µM; EC50 (pVSV-luc; Vesicular stomatitis virus, read-out: EC50 values range): 0.17 to 0.56 µM; EC50 (pVSV-luc; read-out: EC50 pVSV-Gp): 0.19 µM
